Legend:
[1] = Mean daily percent body weight change in irradiated hamsters; format: in vivo, Syrian Golden Hamsters; conditions: Group 3 (10% Nu-8, TID topical); p<0.05
Description: The mean daily percent body weight change data are shown in FIG. 2 for animals in all groups. Animals steadily gained weight throughout the duration of the study.

[2] = tested on: oral mucositis induced by acute radiation; experiment: Oral mucositis induced by acute radiation in hamsters (blinded mucositis scoring); format: in vivo, Syrian Golden Hamsters; parameters: key to peak mean mucositis score: 0 = normal, 5 = severe ulceration (photographic scale); conditions: for % Days ≥ 3 / Days < 3 (animal days with mucositis score <3) / Days ≥ 3 (animal days with mucositis score ≥3): through Day 28
Description: The objective of the study was to test the efficacy of Nu-8 in the treatment of oral mucositis induced by acute radiation in hamsters.
Normal male Syrian Golden Hamsters (Charles River Laboratories), aged 5 to 6 weeks, with average body weight (±SD) of 92.83±3.36 g at study commencement, were used. Animals were individually numbered using an ear punch and housed in small groups. Animals were acclimatized prior to study commencement. During this period, the animals were observed daily in order to reject animals that were in poor condition.
Animals were randomly and prospectively divided into three (3) groups of eight (8) animals each prior to irradiation. Each animal was identified by an ear punch corresponding to an individual number. A cage card was used to identify each cage or label marked with the study number (LKW-01), treatment group number and animal numbers.
Formulation: • 1. Make fresh daily. Weigh out necessary amount of compound and dissolve in normal saline. Titrate with citric acid to bring pH of solution down to approximate 3.5 (pH range 3 to 4). • 2. The vehicle administered to animals in Group 1 was also titrated with citric acid to a pH of ˜3.5 (pH range 3 to 4).
Mucositis was induced using a single of radiation (40 Gy) administered on Day 0. Radiation was generated with a 160-kilovolt potential (18.75-ma) source at a focal distance of 10 cm, hardened with a 3.0 mm Al filtration system. Irradiation targeted the left buccal pouch mucosa at a rate of 2-2.5 Gy/minute. Prior to irradiation, animals were anesthetized with an intraperitoneal injection of ketamine (160 mg/kg) and xylazine (8 mg/kg). The left buccal pouch was everted, fixed and isolated using a lead shield.
Starting on Day 6 and continuing every second day thereafter (Days 8, 10, 12, 14, 16, 18, 20, 22, 24, 26, 28) each animal was photographed and evaluated for mucositis scoring. For the evaluation of mucositis, the animals were anesthetized with an inhalation anesthetic and the left pouch everted. Mucositis was scored visually by comparison to a validated photographic scale (FIGS. 1A-1F), ranging from 0 for normal, to 5 for severe ulceration (clinical scoring). In descriptive terms, this scale is defined as follows: […]
A score of 1-2 is considered to represent a mild stage of the disease, whereas a score of 3-5 is considered to indicate moderate to severe ulcerative mucositis. Following visual clinical scoring, a photograph was taken of each animal's mucosa using a standardized technique. At the conclusion of the experiment, the photographs were randomly numbered and scored by two independent, trained observers who graded the images in blinded fashion using the above-described scale (blinded scoring). For each photograph, the actual blinded score was based on the average of the 2 observers' scores. Only the scores from the blinded, photographic evaluation were reported and used for statistical analyses. Hamsters reaching a mucositis severity score of 4 or higher received buprenorphine (0.5 mg/kg) SC twice a day for 48 hours or until score dropped below 4. Statistical Analyses
Using the blinded photographs, statistical differences between treatment groups were determined using Mann-Whitney Rank Sum test and chi-square analysis with a critical value of 0.05. It was anticipated that up to 10% animal death may occur, primarily as a result of the administration of anesthetics. However, the number of animals expected to remain alive at Day 28 (6 per treatment group) was considered acceptable for statistical evaluation.
The difference in the number of days hamsters in each group have severe mucositis (score ≥3) was analyzed. On each day the animals were scored (evaluation day), the number of animals with a blinded mucositis score of ≥3 in each treatment group was compared to the Vehicle control group. Differences were analyzed on a daily as well as a cumulative basis. […]

CCCCOP(=O)(O)OC[C@H]1O[C@@H](n2ccc(N)nc2=O)C[C@@H]1OP(=O)(O)OCCCC [Nu-8, ((2R,3S,5R)-5-(4-amino-2-oxopyrimidin-1(2H)-yl)-3-((butoxyoxidophosphor-yl)oxy)tetrahydrofuran-2-yl)methyl butyl phosphate]
mean percent weight change vs. vehicle group (AUC analysis, one-way ANOVA) [1]: statistically significant lower mean percent weight change | days of significant improvement in mucositis scores vs. Vehicle (Mann-Whitney rank sum) ([2]; 1% Nu-8 (Group 2)): one day of significant improvement | Chi Sq vs. Vehicle (animal days with score ≥3) ([2]; 1% Nu-8, TID topical): 2.094 | Percent Ulceration by Day (Score ≥ 3) ([2]; 1% Nu-8, TID topical, Day 6): 0.0% | Percent Ulceration by Day (Score ≥ 3) ([2]; 1% Nu-8, TID topical, Day 8): 0.0% | Percent Ulceration by Day (Score ≥ 3) ([2]; 1% Nu-8, TID topical, Day 10): 0.0% | Percent Ulceration by Day (Score ≥ 3) ([2]; 1% Nu-8, TID topical, Day 12): 0.0% | Percent Ulceration by Day (Score ≥ 3) ([2]; 1% Nu-8, TID topical, Day 14): 12.5% | Percent Ulceration by Day (Score ≥ 3) ([2]; 1% Nu-8, TID topical, Day 16): 50.0% | Percent Ulceration by Day (Score ≥ 3) ([2]; 1% Nu-8, TID topical, Day 18): 87.5% | Percent Ulceration by Day (Score ≥ 3) ([2]; 1% Nu-8, TID topical, Day 20): 87.5% | Percent Ulceration by Day (Score ≥ 3) ([2]; 1% Nu-8, TID topical, Day 22): 87.5% | Percent Ulceration by Day (Score ≥ 3) ([2]; 1% Nu-8, TID topical, Day 24): 87.5% | Percent Ulceration by Day (Score ≥ 3) ([2]; 1% Nu-8, TID topical, Day 26): 50.0% | Percent Ulceration by Day (Score ≥ 3) ([2]; 1% Nu-8, TID topical, Day 28): 25.0% | peak mean mucositis score ([2]; 1% Nu-8, TID topical, on Day 18): 2.88±0.13 | % Days ≥ 3 ([2]; 1% Nu-8, TID topical): 40.63% | Days < 3 (animal days with mucositis score <3) ([2]; 1% Nu-8, TID topical): 57 | Days ≥ 3 (animal days with mucositis score ≥3) ([2]; 1% Nu-8, TID topical): 39 | days of significant improvement in mucositis scores vs. Vehicle (Mann-Whitney rank sum) ([2]; 10% Nu-8 (Group 3)): multiple days of significant improvement | Chi Sq vs. Vehicle (animal days with score ≥3) ([2]; 10% Nu-8, TID topical): 30.762 | disease severity in comparison to vehicle-dosed animals ([2]; 10% Nu-8, TID topical): robust mitigation of disease severity | Percent Ulceration by Day (Score ≥ 3) ([2]; 10% Nu-8, TID topical, Day 6): 0.0% | Percent Ulceration by Day (Score ≥ 3) ([2]; 10% Nu-8, TID topical, Day 8): 0.0% | Percent Ulceration by Day (Score ≥ 3) ([2]; 10% Nu-8, TID topical, Day 10): 0.0% | Percent Ulceration by Day (Score ≥ 3) ([2]; 10% Nu-8, TID topical, Day 12): 0.0% | Percent Ulceration by Day (Score ≥ 3) ([2]; 10% Nu-8, TID topical, Day 14): 12.5% | Percent Ulceration by Day (Score ≥ 3) ([2]; 10% Nu-8, TID topical, Day 16): 25.0% | Percent Ulceration by Day (Score ≥ 3) ([2]; 10% Nu-8, TID topical, Day 18): 25.0% | Percent Ulceration by Day (Score ≥ 3) ([2]; 10% Nu-8, TID topical, Day 20): 25.0% | Percent Ulceration by Day (Score ≥ 3) ([2]; 10% Nu-8, TID topical, Day 22): 25.0% | Percent Ulceration by Day (Score ≥ 3) ([2]; 10% Nu-8, TID topical, Day 24): 12.5% | Percent Ulceration by Day (Score ≥ 3) ([2]; 10% Nu-8, TID topical, Day 26): 0.0% | Percent Ulceration by Day (Score ≥ 3) ([2]; 10% Nu-8, TID topical, Day 28): 0.0% | peak mean mucositis score ([2]; 10% Nu-8, TID topical, on Days 16 & 18): 2.29±0.18 | % Days ≥ 3 ([2]; 10% Nu-8, TID topical): 11.90% | Days < 3 (animal days with mucositis score <3) ([2]; 10% Nu-8, TID topical): 74 | Days ≥ 3 (animal days with mucositis score ≥3) ([2]; 10% Nu-8, TID topical): 10 | percentage of days with a score of ≥3 in comparison to the Vehicle control group ([2]; 10% Nu-8, chi-square analysis): statistically different | percent ulceration in comparison to vehicle-dosed animal ([2]; both dose concentrations (1% and 10%), numerous days): percent ulceration that was lower in comparison to vehicle-dosed animal | disease onset (mean daily mucositis scores) ([2]; both groups treated with Nu-8 (1% and 10%), more so with 10%): modest attenuation of disease onset
